Measurements from the supplement of paper PMC10307832.

Tests used:
Experiment in all cases: relative viability (nuclei count vs DMSO), 5 days (fraction); higher = more cells survive
Kobe2602 + AZD7762 = compound: C1=CC(=CC=C1NC(=S)NNC2=C(C=C(C=C2[N+](=O)[O-])C(F)(F)F)[N+](=O)[O-])F [Kobe2602] + NC(=O)Nc1cc(-c2cccc(F)c2)sc1C(=O)N[C@H]1CCCNC1 [AZD7762] (partner 0.2 µM)
Method in brief: (§1)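 Lung cancer cell lines were seeded in 1536-well plates and dosed by pin tool the next day, with either a single drug or a fixed anchor-drug dose combined with five library-drug doses (not always all listed) spaced in √10 steps. Five days later, one step fixed the cells and stained their nuclei (final 0.05% Triton X-100, 1% formaldehyde, 1 ug/ml Hoechst), and nuclei were counted on 4× images. Relative viability is the nuclei count in treated wells divided by the count in vehicle wells, and each value is the median of duplicate plates.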

Kobe2602 + Vorinostat = compound: C1=CC(=CC=C1NC(=S)NNC2=C(C=C(C=C2[N+](=O)[O-])C(F)(F)F)[N+](=O)[O-])F [Kobe2602] + O=C(CCCCCCC(=O)Nc1ccccc1)NO [Vorinostat] (partner 1 µM)
Method in brief: as §1

[1] = compound: COc1cc2nccc(Oc3ccc(NC(=O)C4(C(=O)Nc5ccc(F)cc5)CC4)cc3)c2cc1OC [Cabozantinib] + CC(C)C[C@H](NC(=O)[C@H](Cc1ccccc1)NC(=O)c1cnccn1)B(O)O [Bortezomib] (partner 0.002 µM)
Method in brief: as §1

Cabozantinib + Alpelisib = compound: COc1cc2nccc(Oc3ccc(NC(=O)C4(C(=O)Nc5ccc(F)cc5)CC4)cc3)c2cc1OC [Cabozantinib] + Cc1nc(NC(=O)N2CCC[C@H]2C(N)=O)sc1-c1ccnc(C(C)(C)C(F)(F)F)c1 [Alpelisib] (partner 2 µM)
Method in brief: as §1

Row | Cell Line | relative viability (Kobe2602 + AZD7762; first compound 0.2 µM) | relative viability (Kobe2602 + AZD7762; first compound 0.6325 µM) | relative viability (Kobe2602 + AZD7762; first compound 2 µM) | relative viability (Kobe2602 + AZD7762; first compound 6.325 µM) | relative viability (Kobe2602 + AZD7762; first compound 20 µM) | relative viability (Kobe2602 + Vorinostat; first compound 0.2 µM) | relative viability (Kobe2602 + Vorinostat; first compound 0.6325 µM) | relative viability (Kobe2602 + Vorinostat; first compound 2 µM) | relative viability (Kobe2602 + Vorinostat; first compound 6.325 µM) | relative viability (Kobe2602 + Vorinostat; first compound 20 µM) | relative viability ([1]; first compound 0.02 µM) | relative viability ([1]; first compound 0.06325 µM) | relative viability ([1]; first compound 0.2 µM) | relative viability ([1]; first compound 0.6325 µM) | relative viability ([1]; first compound 2 µM) | relative viability (Cabozantinib + Alpelisib; first compound 0.02 µM) | relative viability (Cabozantinib + Alpelisib; first compound 0.06325 µM) | relative viability (Cabozantinib + Alpelisib; first compound 0.2 µM) | relative viability (Cabozantinib + Alpelisib; first compound 0.6325 µM) | relative viability (Cabozantinib + Alpelisib; first compound 2 µM)
1 | 201T | 0.614 | 0.619 | 0.603 | 0.611 | 0.799 | 0.959 | 0.938 | 0.997 | 1.03 | 1.1 | 1.14 | 1.15 | 1.05 | 1.08 | 1.12 | 1.03 | 1.05 | 0.981 | 0.99 | 0.958
2 | A549 | – | – | – | – | – | – | – | – | – | – | – | – | – | – | – | 0.877 | 0.884 | 0.833 | 0.809 | 0.794
3 | A-427 | 0.784 | 0.809 | 0.808 | 0.812 | 0.939 | 0.889 | 0.849 | 0.906 | 0.888 | 0.867 | 1.03 | 0.969 | 1.05 | 0.936 | 0.988 | 1.08 | 1.12 | 1.12 | 1.05 | 1.01
4 | ABC-1 | 0.85 | 1 | 0.939 | 0.882 | 0.646 | 1.17 | 1.54 | 0.754 | 1.02 | 1.41 | 0.263 | 0.263 | 0.294 | 0.351 | 0.279 | 0.865 | 1.16 | 1.01 | 1.01 | 0.995
5 | BEN | 0.74 | 0.73 | 0.74 | 0.651 | 0.691 | 0.634 | 0.606 | 0.581 | 0.56 | 0.625 | 0.679 | 1.08 | 0.902 | 0.639 | 0.795 | 0.992 | 1.11 | 1.01 | 1.06 | 0.776
6 | CAL-12T | 0.644 | 0.736 | 0.568 | 0.609 | 0.506 | 0.828 | 0.831 | 0.769 | 0.851 | 0.706 | 0.876 | 1.25 | 0.882 | – | 1.06 | 1.23 | 1.27 | 1.19 | 1.16 | 1.18
7 | COR-L23 | – | – | – | – | – | 0.476 | 0.491 | 0.405 | 0.472 | 0.404 | 1.25 | 1 | 1.01 | 1.06 | 1.07 | 0.717 | 0.883 | 0.855 | 0.699 | 0.59
8 | COR-L 105 | – | – | – | – | – | 0.786 | 0.932 | 0.647 | 0.774 | 0.705 | 0.799 | 0.999 | – | 0.702 | 0.837 | 0.898 | 1.08 | – | 0.945 | 0.859
9 | Calu-6 | – | – | – | – | – | – | – | – | – | – | 1.09 | 1.05 | 1.04 | 1.04 | 0.949 | 1.02 | 1.09 | 1.05 | 1.04 | 0.906
10 | ChaGo-K-1 | 0.891 | 0.836 | 0.878 | 0.892 | 0.872 | 0.813 | 0.812 | 0.766 | 0.708 | 0.697 | 0.829 | 1.25 | 0.909 | 0.804 | 1.04 | – | – | – | – | –
